# Measurements as given in ChEMBL document CHEMBL1130918, “Antineoplastic agents. 397: Isolation and structure of sesterstatins 4 and 5 from Hyrtios erecta (the Republic of Maldives)” (1998).
# Columns and labels:
# Assay type in all cases: functional
# FaDu = test: Inhibitory activity against growth of human pharynx cancer cell line FADU was determined
# DU-145 [1] = test: Inhibitory activity against growth of human prostate cancer cell line DU-145 was determined
# P388 [2] = test: Effective dose that causes inhibition of growth of P388 leukemia cells was determined; conditions: Mus musculus, read-out: ED50 (the source's name)
# SW-1736 = test: Inhibitory activity against growth of human thyroid cancer cell line SW1736 was determined
# P388 [3] = test: Inhibitory activity against growth of P388 leukemia cells was determined; conditions: Mus musculus
# BXPC-3 = test: Inhibitory activity against growth of human pancreatic cancer cell line BXPC-3 was determined
# KAT-4 cell line = test: Inhibitory activity against growth of human thyroid cancer cell line KAT-4 was determined
# NCI-H460 = test: Inhibitory activity against growth of human lung NSC cancer cell line NCI-H460 was determined
# DU-145 [4] = test: Inhibitory activity against growth of human prostate cancer cell line DU-145 was determined.
# U-251 = test: Inhibitory activity against growth of human CNS cancer cell line U251 was determined
# RPMI-7951 = test: Inhibitory activity against growth of human melanomic cancer cell line RPMI-7951 was determined
GI50 (DU-145 [1]),EC50 (P388 [2]),GI50 (SW-1736),GI50 (P388 [3]),GI50 (BXPC-3),GI50 (NCI-H460),GI50 (DU-145 [4]),GI50 (U-251),SMILES,GI50 (FaDu),GI50 (KAT-4 cell line),GI50 (RPMI-7951)
1.6 µg/mL,4.87 µg/mL,2.1 µg/mL,4.9 µg/mL,1.6 µg/mL,1.8 µg/mL,–,–,CC1(C)CCC[C@]2(C)[C@H]3C[C@@H](O)[C@]4(C)c5cocc5[C@H](O)C[C@H]4[C@]3(C)CC[C@@H]12 [SESTERSTATIN 4],2 µg/mL,2 µg/mL,–
–,> 10 µg/mL,–,> 10 µg/mL,2.2 µg/mL,2.5 µg/mL,1.9 µg/mL,1.9 µg/mL,CC1(C)CCC[C@]2(C)[C@H]3C[C@@H](O)[C@]4(C)c5cocc5[C@@H](O)C[C@H]4[C@]3(C)CC[C@@H]12 [SESTERSTATIN 5],1.9 µg/mL,–,2.1 µg/mL
